Tests used:
Format in all cases: cell-based
[1] = target: T1, Lysophosphatidic acid receptor 3 (Homo sapiens, UniProt Q9UBY5); experiment: Agonist activity at human LPA3 receptor transfected in HEK293 cells after 1 hr by TGFalpha shedding assay
T1 sequence (Q9UBY5 whole entry): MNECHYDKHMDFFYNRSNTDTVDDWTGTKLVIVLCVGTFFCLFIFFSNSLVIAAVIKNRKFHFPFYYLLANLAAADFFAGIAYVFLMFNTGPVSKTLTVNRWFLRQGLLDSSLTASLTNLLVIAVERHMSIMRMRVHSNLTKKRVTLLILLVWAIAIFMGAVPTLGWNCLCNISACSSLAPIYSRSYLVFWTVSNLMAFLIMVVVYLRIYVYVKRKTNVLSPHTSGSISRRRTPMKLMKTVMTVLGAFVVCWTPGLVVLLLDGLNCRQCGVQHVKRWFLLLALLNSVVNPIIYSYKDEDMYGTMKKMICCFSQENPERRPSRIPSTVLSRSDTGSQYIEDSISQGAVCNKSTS

[2] = target: T2, Lysophosphatidic acid receptor 5 (Homo sapiens, UniProt Q9H1C0); experiment: Agonist activity at human LPA5 receptor transfected in HEK293 cells after 1 hr by TGFalpha shedding assay in presence of Ki16425
[3] = target: T3, Lysophosphatidic acid receptor 4 (Homo sapiens, UniProt Q99677); experiment: Agonist activity at human LPA4 receptor transfected in HEK293 cells after 1 hr by TGFalpha shedding assay in presence of Ki16425
[4] = target: T4, Lysophosphatidic acid receptor 2 (Homo sapiens, UniProt Q9HBW0); experiment: Agonist activity at human LPA2 receptor transfected in HEK293 cells after 1 hr by TGFalpha shedding assay
[5] = target: T3, Lysophosphatidic acid receptor 4; experiment: Intrinsic activity at human LPA4 receptor transfected in HEK293 cells after 1 hr by TGFalpha shedding assay in presence of Ki16425 relative to LPA
[6] = target: T5, Lysophosphatidic acid receptor 6 (Homo sapiens) (UniProt P43657); experiment: Intrinsic activity at human LPA6 receptor transfected in HEK293 cells after 1 hr by TGFalpha shedding assay in presence of Ki16425 relative to LPA
T5 sequence (whole entry): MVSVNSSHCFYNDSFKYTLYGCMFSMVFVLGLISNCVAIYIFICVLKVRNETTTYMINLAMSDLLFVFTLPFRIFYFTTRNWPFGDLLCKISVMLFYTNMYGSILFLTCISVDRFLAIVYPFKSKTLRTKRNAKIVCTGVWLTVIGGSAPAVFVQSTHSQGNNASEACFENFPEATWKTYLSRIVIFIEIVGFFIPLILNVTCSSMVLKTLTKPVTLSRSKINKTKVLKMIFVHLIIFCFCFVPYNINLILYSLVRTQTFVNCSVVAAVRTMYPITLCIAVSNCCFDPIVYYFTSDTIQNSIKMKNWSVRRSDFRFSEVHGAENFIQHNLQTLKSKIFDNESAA

[7] = target: T2, Lysophosphatidic acid receptor 5; experiment: Intrinsic activity at human LPA5 receptor transfected in HEK293 cells after 1 hr by TGFalpha shedding assay in presence of Ki16425 relative to LPA
[8] = target: T6, Lysophosphatidic acid receptor 3 (Homo sapiens) (UniProt Q9UBY5); experiment: Intrinsic activity at human LPA3 receptor transfected in HEK293 cells after 1 hr by TGFalpha shedding assay relative to LPA
T6 sequence (whole entry): T1 sequence (Q9UBY5 whole entry)

[9] = target: T7, Lysophosphatidic acid receptor 6 (Homo sapiens, UniProt P43657); experiment: Agonist activity at human LPA6 receptor transfected in HEK293 cells after 1 hr by TGFalpha shedding assay in presence of Ki16425
T7 sequence (P43657 whole entry): T5 sequence (whole entry)

[10] = target: T8, Lysophosphatidic acid receptor 1 (Homo sapiens, UniProt Q92633); experiment: Agonist activity at human LPA1 receptor transfected in HEK293 cells after 1 hr by TGFalpha shedding assay
[11] = target: T8, Lysophosphatidic acid receptor 1; experiment: Intrinsic activity at human LPA1 receptor transfected in HEK293 cells after 1 hr by TGFalpha shedding assay relative to LPA
[12] = target: T4, Lysophosphatidic acid receptor 2; experiment: Intrinsic activity at human LPA2 receptor transfected in HEK293 cells after 1 hr by TGFalpha shedding assay relative to LPA

T3 sequence (Q99677 whole entry): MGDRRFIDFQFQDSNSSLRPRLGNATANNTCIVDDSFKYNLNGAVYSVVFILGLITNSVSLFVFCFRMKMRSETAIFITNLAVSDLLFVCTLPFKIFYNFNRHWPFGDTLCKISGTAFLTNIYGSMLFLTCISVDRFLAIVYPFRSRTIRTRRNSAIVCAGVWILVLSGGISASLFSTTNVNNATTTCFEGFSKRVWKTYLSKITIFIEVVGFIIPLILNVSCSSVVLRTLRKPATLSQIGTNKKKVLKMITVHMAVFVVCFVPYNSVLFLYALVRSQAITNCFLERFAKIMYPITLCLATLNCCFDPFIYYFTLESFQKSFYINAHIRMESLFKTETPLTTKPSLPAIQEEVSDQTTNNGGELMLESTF
T8 sequence (Q92633 whole entry): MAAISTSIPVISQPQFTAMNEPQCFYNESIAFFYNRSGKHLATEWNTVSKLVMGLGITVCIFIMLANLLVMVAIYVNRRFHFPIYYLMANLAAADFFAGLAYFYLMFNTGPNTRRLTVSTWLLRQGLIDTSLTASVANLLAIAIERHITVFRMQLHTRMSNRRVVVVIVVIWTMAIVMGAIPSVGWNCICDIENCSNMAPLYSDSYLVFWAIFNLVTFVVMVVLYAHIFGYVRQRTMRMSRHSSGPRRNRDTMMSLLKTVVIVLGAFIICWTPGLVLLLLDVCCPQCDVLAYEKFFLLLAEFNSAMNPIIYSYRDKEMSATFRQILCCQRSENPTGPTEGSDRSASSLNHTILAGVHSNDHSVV
T4 sequence (Q9HBW0 whole entry): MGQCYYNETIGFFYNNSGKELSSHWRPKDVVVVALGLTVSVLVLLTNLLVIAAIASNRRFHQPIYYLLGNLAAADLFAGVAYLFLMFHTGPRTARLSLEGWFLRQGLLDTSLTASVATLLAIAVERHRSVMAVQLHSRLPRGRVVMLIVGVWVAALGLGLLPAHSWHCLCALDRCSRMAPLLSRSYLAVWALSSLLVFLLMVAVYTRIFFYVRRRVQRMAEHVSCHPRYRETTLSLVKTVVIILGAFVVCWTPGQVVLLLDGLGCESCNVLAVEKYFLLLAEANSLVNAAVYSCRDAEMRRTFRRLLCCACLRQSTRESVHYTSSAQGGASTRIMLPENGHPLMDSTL
T2 sequence (Q9H1C0 whole entry): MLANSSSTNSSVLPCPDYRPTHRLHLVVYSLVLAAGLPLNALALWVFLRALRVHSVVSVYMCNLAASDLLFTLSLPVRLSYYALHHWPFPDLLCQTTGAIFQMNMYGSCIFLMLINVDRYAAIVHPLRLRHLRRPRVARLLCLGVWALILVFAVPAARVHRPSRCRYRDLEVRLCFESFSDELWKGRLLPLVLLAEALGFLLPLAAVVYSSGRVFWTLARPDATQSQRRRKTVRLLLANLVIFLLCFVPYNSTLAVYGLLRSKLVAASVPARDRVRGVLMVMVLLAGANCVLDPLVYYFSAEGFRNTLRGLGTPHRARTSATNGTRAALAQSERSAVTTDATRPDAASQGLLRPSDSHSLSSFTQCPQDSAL

For `CCCCCCCCCCCCCCCCOC(COC)COP(O)(O)=S` (configuration not stated), the EC50 [1] was 0.36 nM, the EC50 [2] was 0.26 nM and the EC50 [3] was 3.8 nM. The EC50 [4] was 116 nM, the Intrinsic activity [5] was 2.1 and the Intrinsic activity [6] was 10.9. For the same compound, the Intrinsic activity [7] was 300, the Intrinsic activity [8] was 300 and the EC50 [9] was 66 nM. For the same compound, the EC50 [10] was 26 nM, the Intrinsic activity [11] was 0.38 and the Intrinsic activity [12] was 0.046.
Work on `CCCCCCCCCCCCCCCCCCOC[C@H](COP(O)(O)=S)OC` yielded an EC50 [1] of 1.08 nM, an EC50 [2] of 6.1 nM and an EC50 [3] of 4.9 nM. The EC50 [4] was 350 nM, the Intrinsic activity [5] was 2.1 and the Intrinsic activity [6] was 10.9. It also gave an Intrinsic activity [7] of 16, an Intrinsic activity [8] of 140 and an EC50 [9] of 105 nM. For the same compound, the EC50 [10] was 31 nM, the Intrinsic activity [11] was 0.57 and the Intrinsic activity [12] was 0.088.
`CCCCCCCCCCCCCCCCCOC(COC)COP(O)(O)=S` (racemic) was tested, and the EC50 [1] was 0.39 nM, the EC50 [2] was 3 nM and the EC50 [3] was 4.5 nM. It also gave an EC50 [4] of 117 nM, an Intrinsic activity [5] of 2 and an Intrinsic activity [6] of 15.1. It also gave an Intrinsic activity [7] of 26, an Intrinsic activity [8] of 340 and an EC50 [9] of 78 nM. The EC50 [10] was 11.1 nM, the Intrinsic activity [11] was 1.29 and the Intrinsic activity [12] was 0.3.
In the case of `CCCCCCCCCCCCCCCCCCOC[C@@H](COP(O)(O)=S)OC`, the EC50 [1] is reported as 0.37 nM, the EC50 [2] is reported as 3.4 nM and the EC50 [3] is reported as 3.5 nM. It also gave an EC50 [4] of 110 nM, an Intrinsic activity [5] of 2.7 and an Intrinsic activity [6] of 11. For the same compound, the Intrinsic activity [7] was 23, the Intrinsic activity [8] was 390 and the EC50 [9] was 90 nM. For the same compound, the EC50 [10] was 10.1 nM, the Intrinsic activity [11] was 1.2 and the Intrinsic activity [12] was 0.34.
In the case of `CCCCCCCCCCCCCCCCCC(=O)OC(COC)COP(O)(O)=S` (racemic), the EC50 [1] is reported as 0.21 nM, the EC50 [2] is reported as 1.81 nM and the EC50 [3] is reported as 2.4 nM. It also gave an EC50 [4] of 146 nM, an Intrinsic activity [5] of 3.9 and an Intrinsic activity [6] of 14.3. It also gave an Intrinsic activity [7] of 41, an Intrinsic activity [8] of 600 and an EC50 [9] of 76 nM. For the same compound, the EC50 [10] was 12.2 nM, the Intrinsic activity [11] was 1.15 and the Intrinsic activity [12] was 0.165.
`CCCCCCCCCCCCCCCCCCOCC(COP(O)(O)=S)OC` (racemic) gave an EC50 [1] of 0.23 nM, an EC50 [2] of 0.83 nM and an EC50 [3] of 3.8 nM. For the same compound, the EC50 [4] was 100 nM, the Intrinsic activity [5] was 2.2 and the Intrinsic activity [6] was 27. For the same compound, the Intrinsic activity [7] was 114, the Intrinsic activity [8] was 570 and the EC50 [9] was 39 nM. For the same compound, the EC50 [10] was 8.4 nM, the Intrinsic activity [11] was 1.63 and the Intrinsic activity [12] was 0.26.
Work on `CCCCCCCCCCCCCCCCCC(=O)OCC(COP(=O)(O)S)OC` (racemic) yielded an EC50 [1] of 0.28 nM, an EC50 [2] of 6.3 nM and an EC50 [3] of 3.3 nM. For the same compound, the EC50 [4] was 161 nM, the Intrinsic activity [5] was 2.6 and the Intrinsic activity [6] was 13.3. It also gave an Intrinsic activity [7] of 11.1, an Intrinsic activity [8] of 410 and an EC50 [9] of 86 nM. It also gave an EC50 [10] of 16.5 nM, an Intrinsic activity [11] of 0.79 and an Intrinsic activity [12] of 0.188.
For `CCCCCCCCCCCCCCCC(=O)OC[C@@H](O)COP(=O)(O)O`, the EC50 [1] was 580 nM, the EC50 [2] was 68 nM and the EC50 [3] was 84 nM. For the same compound, the EC50 [4] was 290 nM, the Intrinsic activity [5] was 0.14 and the Intrinsic activity [6] was 0.25. It also gave an Intrinsic activity [7] of 1.04, an Intrinsic activity [8] of 0.102 and an EC50 [9] of 930 nM. For the same compound, the EC50 [10] was 71 nM, the Intrinsic activity [11] was 0.24 and the Intrinsic activity [12] was 0.092.
`CCCCCCCCCCCCCCCCCC(=O)OC[C@H](COP(O)(O)=S)OC` showed an EC50 [1] of 0.44 nM, an EC50 [2] of 8.2 nM and an EC50 [3] of 4.9 nM. It also gave an EC50 [4] of 149 nM, an Intrinsic activity [5] of 1.6 and an Intrinsic activity [6] of 19.3. For the same compound, the Intrinsic activity [7] was 8.4, the Intrinsic activity [8] was 260 and the EC50 [9] was 58 nM. For the same compound, the EC50 [10] was 24 nM, the Intrinsic activity [11] was 0.61 and the Intrinsic activity [12] was 0.178.
For `CCCCCCCCCCCCCCCCCC(=O)OC[C@@H](COP(O)(O)=S)OC`, the EC50 [1] was 0.27 nM, the EC50 [2] was 5.1 nM and the EC50 [3] was 2.7 nM. The EC50 [4] was 112 nM, the Intrinsic activity [5] was 3.1 and the Intrinsic activity [6] was 13.1. For the same compound, the Intrinsic activity [7] was 14.8, the Intrinsic activity [8] was 500 and the EC50 [9] was 79 nM. The EC50 [10] was 14.7 nM, the Intrinsic activity [11] was 0.94 and the Intrinsic activity [12] was 0.25.
Compound `CCCCCCCC/C=C\CCCCCCCC(=O)OC[C@@H](O)COP(=O)(O)O` [LYSOPHOSPHATIDIC ACID] has an Intrinsic activity [5] of 1, an Intrinsic activity [6] of 1 and an Intrinsic activity [7] of 1. The Intrinsic activity [8] was 1, the EC50 [10] was 18 nM and the Intrinsic activity [11] was 1. It also gave an Intrinsic activity [12] of 1.
